The results in this text go back to patent US20220023271A1, “COMPOSITION FOR PREVENTING OR TREATING CELLULAR SENESCENCE-RELATED DISEASES COMPRISING ZOTAROLIMUS AS ACTIVE INGREDIENT” (RESEARCH COOPERATION FOUNDATION OF YEUNGNAM UNIVERSITY, priority 2018, published 2022).

Data set [1] deals with human dermal fibroblasts (HDF). Briefly: SAβG activity staining in senescent human fibroblasts. The format is cell-based. The following applies: 4 days; for SAβG activity: 100 nM. Here is the method: Each cell was treated in a serum-free culture solution containing 0.5 μM doxorubicin for 4 hours. After washing the cells with a serum-free culture solution, the cells were cultured for 4 days in a culture solution containing 10% FBS, and then cellular aging was confirmed by staining with senescence-associated beta galactosidase (SAβG). After dispensing 2×10^5 cells in a 100 mm culture dish, they were cultured in a 37° C., 5% CO2 incubator. When the cells grew to 80-90% in the culture dish, the cells were removed by treatment with trypsin-EDTA, and the number of cells was measured, and the cell population doubling time (PDT) was measured. By successively subculturing the cells in the same process as described above, replication aging was induced. PDT of young fibroblasts was 36 hours, PDT of replicative senescent fibroblasts was 12 days, PDT of young vascular endothelial cells was 24 hours, and PDT of replicative senescent vascular endothelial cells was 7 days. After each sample was dissolved in DMSO, young cells, replicative senescent cells, and premature senescent cells treated with doxorubicin were treated with 100 nM zotarolimus, 100 nM rapamycin, 100 nM ABT263, respectively. After incubation for 4 days in a 37° C., 5% CO2 incubator, the degree of cell growth was confirmed by CCK-8 analysis, the degree of cellular aging was confirmed by senescence-related beta-galactosidase (SAβG) staining, The cells were washed with 1× phosphate buffer solution, and fixed with a phosphate buffer solution containing 3.7% (v/v) paraformaldehyde. After adding 1 mg/ml 5-bromo-4-chloro-3-indolyl-6-D-galactoside, 40 mM citric acid-sodium phosphate (pH 6.0), 5 mM potassium ferricyanide, 5 mM potassium ferrocyanide, 150 mM NaCl, and 2 mM MgCl2 solution, it was reacted at 37° C. for 18 hours. It was stained with eosin as a control stain. Cells stained blue in the cytoplasm were identified using an optical microscope. Human fibroblasts were treated with doxorubicin to induce early cellular senescence. […]

In data set [2] the test system is human retinal pigmented epithelial cells (ARPE-19). Briefly: LDH activity analysis in retinal pigmented epithelial cells. It counts as cell-based. To be noted: young and senescent retinal pigmented epithelial cells. The protocol:
Cytotoxicity against young and senescent cells was investigated with a lactate dehydrogenase (LDH) activity kit (Dojindo Molecular Technologies Inc.).
Young cells (1×10^3 cells/100 μl/well) or senescent cells (2×10^3 cells/100 μl/well) were dispensed into a 96-well plate, and then cultured overnight in a 37° C., 5% CO2 incubator. Zotarolimus and ABT263 were treated at each concentration, and then incubated for 4 days in a 37° C., 5% CO2 incubator.
After transferring the cell culture solution to a 1.5 ml tube, it was centrifuged at 4° C. and 12,000 rpm. 100 μl of the supernatant was dispensed into a 96-well plate, and 100 μl of the LDH measurement solution was added to each well, followed by reaction in a CO2 incubator for 30 minutes.
50 μl of the LDH reaction stop solution was added, and absorbance was measured at 490 nm using a microplate reader. The level of LDH activity was expressed as a relative value based on the absorbance of the control group treated with only DMSO.

In data set [3] the test system is peritoneal fibrosis induced by CHG. Briefly: Peritoneal fibrosis induced by chlorhexidine gluconate (CHG) in mice. It counts as in vivo, C57BL/6J mice. The following applies: i.p. at 2-day intervals from 9th day; vs DMSO group. Here is the method:
Animal experiments were conducted with the approval of the Animal Experimental Ethics Committee of Yeungnam University College of Medicine (YUMC-AEC2018-033). Peritoneal fibrosis mice experiments were performed using a model of peritoneal fibrosis induced by chlorhexidine gluconate (CHG) (Yoshio Y et al., Kidney international. 2004).
From the 9th day, 2.5 μl of 10 mM zotarolimus (Zota group) or 2.5 μl of DMSO (DMSO group) was diluted in 100 μl phosphate buffer solution and intraperitoneally injected at intervals of 2 days.
As a negative control (NT group), 100 μl of a 15% ethanol phosphate buffer solution was injected intraperitoneally instead of a 0.1% CHG solution. On the 20th day, the mice were sacrificed, the peritoneal tissue was excised, and the tissue was fixed in 4% paraformaldehyde solution.
The tissue fixed in 10% formalin solution was embedded with paraffin and cut into 4 μm to prepare a tissue sample. After removing paraffin from the tissue sample, hematoxylin-eosin staining, trichrome staining, and PAS staining were performed.
The degree of fibrosis was measured by analyzing the degree of collagen staining using the i-Solution™ software program (IMT Inc., Canada) after trichrome staining and the degree of cell senescence in tissue samples was investigated by staining lipofuscin with Sudan black B (Viegas M S, et al., European journal of histochemistry: EJH. 2007). […]

Take `CO[C@H]1C[C@@H]2CC[C@@H](C)[C@@](O)(O2)C(=O)C(=O)N2CCCC[C@H]2C(=O)O[C@H]([C@H](C)C[C@@H]2CC[C@H](n3cnnn3)[C@H](OC)C2)CC(=O)[C@H](C)/C=C(\C)[C@@H](O)[C@@H](OC)C(=O)[C@H](C)C[C@H](C)/C=C/C=C/C=C/1C` [zotarolimus]: the SAβG activity entry is on record as “decreased compared to the DMSO-treated group” in data set [1] (premature senescent fibroblasts by doxorubicin, vs DMSO-treated group) and “significantly reduced” in data set [1] (replicative senescent fibroblasts, vs DMSO, p<0.01). Moreover, in data set [1] (replicative senescent fibroblasts, 100 nM each, p<0.05), the “SAβG activity compared with rapamycin” value was “significantly reduced than that of rapamycin”. Besides, the “cytotoxicity by LDH activity analysis” value in data set [2] is given as “cytotoxicity specific to senescent cells did not appear”. The “degree of fibrosis (peritoneal)” value in data set [3] is given as “decreased”. Moreover, the “thickness of the peritoneal mesothelial cell layer” value in data set [3] is reported as “significantly reduced”.
